Where two headings read alike, the source gives them in different places.
Settings: 1 month, glass bottle, product of Example 4
Procedure: The solid state stability of the drug substance was determined by storing approximately 1.0 g of the material in a glass bottle at i) 40° C./75% Relative Humidity (RH), open exposure, for 1 month and b) at 50° C., closed, for 1 month. The material was assayed by HPLC for final content and degradation products in both cases.

[1] = 40° C./75% Relative Humidity, open exposure

SMILES: CN(CCOc1ccc(CC2SC(=O)NC2=O)cc1)c1ccccn1.O=C(O)C(O)C(O)C(=O)O (stereo not drawn) [D(−) Tartrate, 5-[4-[2-(N-methyl-N-(2-pyridyl)amino)ethoxy]benzyl]thiazolidine-2,4-dione, D(−) tartrate salt]
- Solid state stability: HPLC assay [1]: 96 % initial
- Solid state stability: degradation observed [1]: No significant degradation observed
- Solid state stability: HPLC assay (50° C., closed): 98 % initial
- Solid state stability: degradation observed (50° C., closed): No significant degradation observed

Source: patent US20040048899A1, “Tartrate salts of thiazollidnedione derivative” (priority 2000, published 2004)
